According to patent US9982242B2, “Protein complex capable of catalyzing asymmetric oxidation reaction and method for producing same” (SANYO FOODS CO., LTD., priority 2012, dated 2018):

System: CLPC
Details: 1 mM

SMILES	effect of additive on CLPC activity
O=C(O)CN(CCN(CC(=O)O)CC(=O)O)CC(=O)O [EDTA]	activity was completely lost
[Cl-].[Cl-].[Zn+2] [ZnCl2]	inhibitory activity was observed

Same assay, conditions: additive 1.0 mM, CLPC 20 mg, rac-2 0.8 mM, […], 48 h

SMILES	OP/% ee of (S)-2 with additive [% ee]
[Ca+2].[Cl-].[Cl-] [CaCl2]	97.7
O=S(=O)([O-])[O-].[Cu+2] [CuSO4]	86.2
[Cl][Fe]([Cl])[Cl] [FeCl3]	79.6
O=S(=O)([O-])[O-].[Mg+2] [MgSO4]	91.2
[Cl][Mn][Cl] [MnCl2]	80.4
[Cl][Ni][Cl] [NiCl2]	77.7
[Cl-].[Cl-].[Zn+2] [ZnCl2]	1.7
c1cnc2c(c1)ccc1cccnc12 [o-phenanthroline]	1.4
